Experimental findings from ChEMBL document CHEMBL4387741, “Optimization of novel reversible Bruton's tyrosine kinase inhibitors identified using Tethering-fragment-based screens” (Bioorg Med Chem, 2019) are described below.

Data set [1] relates to Phosphatidylinositol 4,5-bisphosphate 3-kinase catalytic subunit alpha isoform (Homo sapiens), P42336 [I800L]. The data set is described as follows: Inhibition of human partial length PIK3CA I800L mutant (R108 to N1068 residues) expressed in mammalian expression system at 1 uM by Kinomescan method relative to control.
The target of data set [2] is Serine/threonine-protein kinase OSR1 (Homo sapiens) (UniProt O95747). The data set is described as follows: Inhibition of wild-type human full length OSR1 (M1 to S527 residues) expressed in mammalian expression system at 1 uM by Kinomescan method relative to control.
In data set [3] the target is Death-associated protein kinase 2 (Homo sapiens) (UniProt Q9UIK4). In words: Inhibition of wild-type human full length DAPK2 (M1 to S370 residues) expressed in bacterial expression system at 1 uM by Kinomescan method relative to control.
Data set [4] has as its target Inhibitor of nuclear factor kappa-B kinase subunit epsilon (Homo sapiens) (UniProt Q14164). The data set is described as follows: Inhibition of wild-type human full length IKK-epsilon (M1 to V716 residues) expressed in mammalian expression system at 1 uM by Kinomescan method relative to control.
Data set [5] addresses Mast/stem cell growth factor receptor Kit (Homo sapiens) (UniProt P10721). In words: Inhibition of wild-type human partial length autoinhibited KIT (Y545 to D952 residues) expressed in mammalian expression system at 1 uM by Kinomescan method relative to control.
For data set [6], the system named is Tyrosine-protein kinase ABL1 (Homo sapiens), P00519 [E255K]. In words: Inhibition of human phosphorylated ABL1 E255K mutant (S229 to K512 residues) expressed in mammalian expression system at 1 uM by Kinomescan method relative to control.
Data set [7] concerns the target Angiopoietin-1 receptor (Homo sapiens) (UniProt Q02763). The data set is described as follows: Inhibition of wild-type human partial length TIE2 (N804 to T1112 residues) expressed in bacterial expression system at 1 uM by Kinomescan method relative to control.
In data set [8] the test system is Tyrosine-protein kinase ABL1 (Homo sapiens), P00519 [T315I]. The data set is described as follows: Inhibition of human non-phosphorylated ABL1 T315I mutant (S229 to K512 residues) expressed in mammalian expression system at 1 uM by Kinomescan method relative to control.
Data set [9] in a line: Protein binding in human plasma assessed as unbound fraction at 2 uM by rapid equilibrium dialysis method. The data set is classed as ADME, cell-free.
The target in data set [10] is Serine/threonine-protein kinase SIK1 (Homo sapiens) (UniProt P57059). The data set is described as follows: Inhibition of wild-type human partial length SIK (M1 to Y304 residues) expressed in bacterial expression system at 1 uM by Kinomescan method relative to control.
The target in data set [11] is Phosphatidylinositol 4-phosphate 5-kinase type-1 alpha (Homo sapiens) (UniProt Q99755). In words: Inhibition of wild-type human full length PIP5K1A (M1 to H562 residues) expressed in bacterial expression system at 1 uM by Kinomescan method relative to control.
Data set [12] deals with Mitogen-activated protein kinase kinase kinase 15 (Homo sapiens) (UniProt Q6ZN16). The data set is described as follows: Inhibition of wild-type human partial length MAP3K15 (T625 to L932 residues) expressed in mammalian expression system at 1 uM by Kinomescan method relative to control.
The test system of data set [13] is Receptor-type tyrosine-protein kinase FLT3 (Homo sapiens), P36888 [D835Y]. In words: Inhibition of human partial length FLT3 D835Y mutant (Q580 to Y969 residues) expressed in bacterial expression system at 1 uM by Kinomescan method relative to control.
Data set [14] addresses Serine/threonine-protein kinase RIO1 (Homo sapiens) (UniProt Q9BRS2). The data set is described as follows: Inhibition of wild-type human full length RIOK1 (M1 to K568 residues) expressed in bacterial expression system at 10 uM by Kinomescan method relative to control.
The target in data set [15] is Serine/threonine-protein kinase 38 (Homo sapiens) (UniProt Q15208). In words: Inhibition of wild-type human partial length NDR1 (N33 to E449 residues) expressed in mammalian expression system at 10 uM by Kinomescan method relative to control.
In data set [16] the target is G protein-coupled receptor kinase 4 (Homo sapiens) (UniProt P32298). The data set is described as follows: Inhibition of wild-type human full length GRK4 (M1 to C578 residues) expressed in bacterial expression system at 10 uM by Kinomescan method relative to control.
Data set [17] has as its target Serine/threonine-protein kinase Sgk3 (Homo sapiens) (UniProt Q96BR1). In words: Inhibition of wild-type human partial length SGK3 (M119 to L496 residues) expressed in mammalian expression system at 10 uM by Kinomescan method relative to control.
The target in data set [18] is Mitogen-activated protein kinase 4 (Homo sapiens) (UniProt P31152). In words: Inhibition of wild-type human partial length ERK4 (M1 to L365 residues) expressed in bacterial expression system at 10 uM by Kinomescan method relative to control.
The target of data set [19] is Interleukin-1 receptor-associated kinase 3 (Homo sapiens) (UniProt Q9Y616). The data set is described as follows: Inhibition of wild-type human partial length IRAK3 (V147 to E596 residues) expressed in bacterial expression system at 10 uM by Kinomescan method relative to control.
Data set [20] addresses Serine/threonine-protein kinase tousled-like 2 (Homo sapiens) (UniProt Q86UE8). The data set is described as follows: Inhibition of wild-type human partial length TLK2 (E424 to N749 residues) expressed in bacterial expression system at 10 uM by Kinomescan method relative to control.
Data set [21] deals with Myosin light chain kinase (Homo sapiens) (UniProt Q32MK0). The data set is described as follows: Inhibition of wild-type human partial length MLCK (D488 to K800 residues) expressed in bacterial expression system at 10 uM by Kinomescan method relative to control.
For data set [22], the target named is Ephrin type-B receptor 4 (Homo sapiens) (UniProt P54760). The data set is described as follows: Inhibition of wild-type human partial length EPHB4 (H585 to G892 residues) expressed in bacterial expression system at 10 uM by Kinomescan method relative to control.
Data set [23] deals with Receptor-type tyrosine-protein kinase FLT3 (Homo sapiens), P36888 [UNDEFINED MUTATION]. In words: Inhibition of human partial length FLT3 ITD/F691L double mutant expressed in bacterial expression system at 10 uM by Kinomescan method relative to control.
The target of data set [24] is Dual specificity mitogen-activated protein kinase kinase 6 (Homo sapiens) (UniProt P52564). In words: Inhibition of wild-type human partial length MEK6 (K36 to D334 residues) expressed in bacterial expression system at 10 uM by Kinomescan method relative to control.
The target in data set [25] is Serine/threonine-protein kinase TAO2 (Homo sapiens) (UniProt Q9UL54). In words: Inhibition of wild-type human partial length TAOK2 (M1 to A320 residues) expressed in mammalian expression system at 10 uM by Kinomescan method relative to control.
Data set [26] deals with TGF-beta receptor type-2 (Homo sapiens) (UniProt P37173). The data set is described as follows: Inhibition of wild-type human partial length TGFBR2 (I218 to K567 residues) expressed in bacterial expression system at 10 uM by Kinomescan method relative to control.
In data set [27] the test system is ALK tyrosine kinase receptor (Homo sapiens), Q9UM73 [L1196M]. The data set is described as follows: Inhibition of wild-type human partial length ALK L1196M mutant (I1088 to E1409 residues) expressed in mammalian expression system at 10 uM by Kinomescan method relative to control.

Sequence of Phosphatidylinositol 4-phosphate 5-kinase type-1 alpha (Homo sapiens) (Q99755 whole entry, the tested form may be a part): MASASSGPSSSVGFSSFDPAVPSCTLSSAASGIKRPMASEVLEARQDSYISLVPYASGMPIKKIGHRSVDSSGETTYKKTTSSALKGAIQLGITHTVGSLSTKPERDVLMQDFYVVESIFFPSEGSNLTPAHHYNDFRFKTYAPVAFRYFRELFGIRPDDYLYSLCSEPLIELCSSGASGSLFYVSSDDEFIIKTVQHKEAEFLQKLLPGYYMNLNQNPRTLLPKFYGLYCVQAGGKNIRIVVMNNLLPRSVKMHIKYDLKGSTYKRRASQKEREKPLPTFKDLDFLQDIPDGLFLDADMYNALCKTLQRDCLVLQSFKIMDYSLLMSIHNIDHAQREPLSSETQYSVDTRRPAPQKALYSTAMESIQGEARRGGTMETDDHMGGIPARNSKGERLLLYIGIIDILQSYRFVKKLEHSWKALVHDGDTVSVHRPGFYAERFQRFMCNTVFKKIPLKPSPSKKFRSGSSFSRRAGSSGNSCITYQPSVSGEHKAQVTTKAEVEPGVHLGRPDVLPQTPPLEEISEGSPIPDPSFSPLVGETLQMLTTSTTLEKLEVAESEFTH
Sequence of Serine/threonine-protein kinase SIK1 (Homo sapiens) (P57059 whole entry, the tested form may be a part): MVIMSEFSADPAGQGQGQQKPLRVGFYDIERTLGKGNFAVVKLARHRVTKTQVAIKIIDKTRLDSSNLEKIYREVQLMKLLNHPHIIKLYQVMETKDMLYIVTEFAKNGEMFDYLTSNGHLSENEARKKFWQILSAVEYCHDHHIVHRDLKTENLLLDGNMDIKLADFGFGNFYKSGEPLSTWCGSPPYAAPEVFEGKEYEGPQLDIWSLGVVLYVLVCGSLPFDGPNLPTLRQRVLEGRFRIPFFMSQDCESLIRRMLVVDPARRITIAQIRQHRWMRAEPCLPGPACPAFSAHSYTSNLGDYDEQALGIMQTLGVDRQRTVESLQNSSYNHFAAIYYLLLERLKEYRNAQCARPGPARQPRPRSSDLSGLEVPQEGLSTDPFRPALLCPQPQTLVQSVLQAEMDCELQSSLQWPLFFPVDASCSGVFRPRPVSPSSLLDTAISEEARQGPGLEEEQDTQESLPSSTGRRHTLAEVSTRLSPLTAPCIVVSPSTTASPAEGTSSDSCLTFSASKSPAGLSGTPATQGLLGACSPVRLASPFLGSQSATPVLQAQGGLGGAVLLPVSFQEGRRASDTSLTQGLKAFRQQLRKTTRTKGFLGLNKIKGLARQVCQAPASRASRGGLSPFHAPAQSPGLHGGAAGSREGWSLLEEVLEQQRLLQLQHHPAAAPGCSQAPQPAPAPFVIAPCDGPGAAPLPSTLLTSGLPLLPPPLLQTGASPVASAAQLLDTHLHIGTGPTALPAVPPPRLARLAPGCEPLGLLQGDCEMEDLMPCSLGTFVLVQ
Sequence of Inhibitor of nuclear factor kappa-B kinase subunit epsilon (Homo sapiens) (Q14164 whole entry, the tested form may be a part): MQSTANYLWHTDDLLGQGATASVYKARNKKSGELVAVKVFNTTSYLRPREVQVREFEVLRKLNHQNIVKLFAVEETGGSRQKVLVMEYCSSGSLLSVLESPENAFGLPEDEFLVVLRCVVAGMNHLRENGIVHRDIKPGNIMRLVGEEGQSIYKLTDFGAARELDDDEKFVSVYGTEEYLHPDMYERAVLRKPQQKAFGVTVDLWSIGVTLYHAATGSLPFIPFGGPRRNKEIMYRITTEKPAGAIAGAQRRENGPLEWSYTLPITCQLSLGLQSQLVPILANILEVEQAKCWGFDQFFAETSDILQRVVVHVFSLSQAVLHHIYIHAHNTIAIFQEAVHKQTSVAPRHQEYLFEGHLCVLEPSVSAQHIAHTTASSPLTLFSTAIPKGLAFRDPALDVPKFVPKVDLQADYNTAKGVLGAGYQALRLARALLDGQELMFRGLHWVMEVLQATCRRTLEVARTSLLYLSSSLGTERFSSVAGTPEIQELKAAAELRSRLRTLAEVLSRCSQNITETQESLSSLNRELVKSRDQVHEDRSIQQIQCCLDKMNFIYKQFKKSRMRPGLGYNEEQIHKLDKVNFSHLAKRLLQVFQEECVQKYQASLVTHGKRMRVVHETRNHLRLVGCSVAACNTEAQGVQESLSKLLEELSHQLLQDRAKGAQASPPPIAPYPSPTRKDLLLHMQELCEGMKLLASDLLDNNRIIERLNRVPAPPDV
Sequence of Interleukin-1 receptor-associated kinase 3 (Homo sapiens) (Q9Y616 whole entry, the tested form may be a part): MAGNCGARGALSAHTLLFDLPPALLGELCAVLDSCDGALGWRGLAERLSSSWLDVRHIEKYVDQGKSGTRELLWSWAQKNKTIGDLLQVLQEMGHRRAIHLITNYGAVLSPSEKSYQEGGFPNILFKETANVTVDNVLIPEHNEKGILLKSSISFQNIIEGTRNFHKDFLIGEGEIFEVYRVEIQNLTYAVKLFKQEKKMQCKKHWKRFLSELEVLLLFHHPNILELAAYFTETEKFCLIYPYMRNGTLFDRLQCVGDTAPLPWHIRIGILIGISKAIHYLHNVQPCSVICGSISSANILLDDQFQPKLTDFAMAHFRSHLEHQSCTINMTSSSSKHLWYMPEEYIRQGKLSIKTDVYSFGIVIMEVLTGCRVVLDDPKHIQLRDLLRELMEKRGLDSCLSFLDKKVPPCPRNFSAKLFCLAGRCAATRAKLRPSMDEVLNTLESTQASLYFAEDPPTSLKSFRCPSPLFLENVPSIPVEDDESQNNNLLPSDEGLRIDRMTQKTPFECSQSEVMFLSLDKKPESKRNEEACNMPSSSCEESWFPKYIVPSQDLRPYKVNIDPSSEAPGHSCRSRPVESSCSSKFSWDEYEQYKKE
Sequence of Phosphatidylinositol 4,5-bisphosphate 3-kinase catalytic subunit alpha isoform (Homo sapiens), P42336 [I800L] (P42336 whole entry I800L, the tested form may be a part, canonical isoform): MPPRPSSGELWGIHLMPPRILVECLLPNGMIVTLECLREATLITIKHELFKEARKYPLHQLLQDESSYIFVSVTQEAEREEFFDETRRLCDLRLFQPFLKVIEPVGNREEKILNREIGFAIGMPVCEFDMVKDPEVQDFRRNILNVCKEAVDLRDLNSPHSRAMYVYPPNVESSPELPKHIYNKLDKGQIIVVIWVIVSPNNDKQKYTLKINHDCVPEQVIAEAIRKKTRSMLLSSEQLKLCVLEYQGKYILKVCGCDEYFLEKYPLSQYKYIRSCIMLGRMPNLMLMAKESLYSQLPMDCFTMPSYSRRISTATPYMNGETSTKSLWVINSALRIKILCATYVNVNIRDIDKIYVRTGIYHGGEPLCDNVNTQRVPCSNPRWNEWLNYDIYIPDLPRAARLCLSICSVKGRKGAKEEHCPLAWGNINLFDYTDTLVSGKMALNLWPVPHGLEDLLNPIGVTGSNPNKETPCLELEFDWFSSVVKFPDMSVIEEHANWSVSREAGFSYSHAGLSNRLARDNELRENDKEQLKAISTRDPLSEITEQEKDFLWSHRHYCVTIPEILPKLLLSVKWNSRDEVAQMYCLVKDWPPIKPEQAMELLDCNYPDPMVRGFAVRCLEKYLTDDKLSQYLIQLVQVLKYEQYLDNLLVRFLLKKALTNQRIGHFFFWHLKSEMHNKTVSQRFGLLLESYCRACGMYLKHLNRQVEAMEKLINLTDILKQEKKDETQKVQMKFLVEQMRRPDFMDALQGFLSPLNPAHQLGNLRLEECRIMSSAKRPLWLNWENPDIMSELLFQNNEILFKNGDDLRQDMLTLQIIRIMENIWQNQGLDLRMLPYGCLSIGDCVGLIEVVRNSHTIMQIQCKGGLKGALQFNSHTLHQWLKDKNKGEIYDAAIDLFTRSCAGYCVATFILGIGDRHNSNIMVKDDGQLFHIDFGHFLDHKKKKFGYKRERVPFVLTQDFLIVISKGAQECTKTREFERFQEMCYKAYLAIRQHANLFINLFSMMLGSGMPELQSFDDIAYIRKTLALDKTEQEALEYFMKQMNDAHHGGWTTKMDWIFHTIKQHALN
Sequence of Serine/threonine-protein kinase OSR1 (Homo sapiens) (O95747 2-527 limits assumed): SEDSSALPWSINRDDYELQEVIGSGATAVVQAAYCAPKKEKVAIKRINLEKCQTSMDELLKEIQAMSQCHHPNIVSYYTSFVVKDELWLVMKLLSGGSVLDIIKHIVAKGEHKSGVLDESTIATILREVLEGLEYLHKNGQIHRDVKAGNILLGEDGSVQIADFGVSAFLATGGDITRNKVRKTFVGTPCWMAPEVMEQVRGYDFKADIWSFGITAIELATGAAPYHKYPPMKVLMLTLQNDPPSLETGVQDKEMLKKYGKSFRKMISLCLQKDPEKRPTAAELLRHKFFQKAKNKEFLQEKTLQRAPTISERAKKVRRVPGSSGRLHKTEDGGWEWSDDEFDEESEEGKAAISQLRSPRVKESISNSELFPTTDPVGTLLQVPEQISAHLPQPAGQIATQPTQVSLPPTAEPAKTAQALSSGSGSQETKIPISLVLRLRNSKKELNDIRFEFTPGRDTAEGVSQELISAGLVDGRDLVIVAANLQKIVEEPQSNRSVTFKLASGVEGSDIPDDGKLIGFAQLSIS
Sequence of Serine/threonine-protein kinase 38 (Homo sapiens) (Q15208 2-465 limits assumed): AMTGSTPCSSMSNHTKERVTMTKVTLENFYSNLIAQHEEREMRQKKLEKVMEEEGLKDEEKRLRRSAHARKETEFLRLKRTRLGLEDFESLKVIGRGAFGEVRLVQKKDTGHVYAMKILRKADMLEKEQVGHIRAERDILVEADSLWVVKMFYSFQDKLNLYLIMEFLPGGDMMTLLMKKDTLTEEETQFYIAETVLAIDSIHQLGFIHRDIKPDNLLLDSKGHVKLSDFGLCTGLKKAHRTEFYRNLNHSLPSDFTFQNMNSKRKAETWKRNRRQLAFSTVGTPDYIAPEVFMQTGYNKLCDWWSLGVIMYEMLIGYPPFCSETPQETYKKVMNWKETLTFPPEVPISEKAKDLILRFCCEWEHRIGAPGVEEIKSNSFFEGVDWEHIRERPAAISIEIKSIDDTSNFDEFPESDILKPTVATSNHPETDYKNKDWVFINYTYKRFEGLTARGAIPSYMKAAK
Sequence of Dual specificity mitogen-activated protein kinase kinase 6 (Homo sapiens) (P52564 whole entry, the tested form may be a part): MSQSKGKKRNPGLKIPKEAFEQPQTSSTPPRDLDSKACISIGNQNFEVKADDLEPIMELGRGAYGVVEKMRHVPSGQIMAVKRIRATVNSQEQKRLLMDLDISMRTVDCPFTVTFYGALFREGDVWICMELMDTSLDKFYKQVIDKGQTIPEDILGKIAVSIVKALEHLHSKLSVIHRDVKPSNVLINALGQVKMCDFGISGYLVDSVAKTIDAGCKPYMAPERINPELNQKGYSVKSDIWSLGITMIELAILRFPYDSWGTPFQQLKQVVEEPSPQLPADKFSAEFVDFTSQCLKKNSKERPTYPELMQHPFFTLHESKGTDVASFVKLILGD

Consider `O=C(Nc1cccc([C@@H]2CN(c3ncnc4[nH]ccc34)CCN2CCO)c1)Nc1c(F)cccc1N1CCCC1`, for which the inhibition came out at 74% in [1]; 100% in data set [2]; 6.1% in [3]; 96% in data set [4]; 100% in [5]; 43% in data set [6]. The inhibition stood at 99% in data set [7]; 100% in [8]; 55% in data set [10]; 76% in data set [11]; 74% in [12]; 2.2% in data set [13]. In addition, in [9], the Fu worked out at 1%.
Consider `O=C(Nc1cccc([C@H]2CCCN(c3ncnc4[nH]ccc34)C2)c1)Nc1ccccc1N1CCCC1`, for which the inhibition in [14] is 0%; in data set [15] it was 57%; in [16], 7.4%; in data set [17], 40%; in data set [18] it was 100%; in data set [19], 92%. Further, the inhibition in [20] came out at 89%; in data set [21] it was 100%; in data set [22] it was 98%; in data set [23] it was 3.6%; in data set [24], 86%; in data set [25], 100%. In addition, the inhibition in data set [26] stood at 100%; in data set [27], 63%.

Usually inhibition stands for the percentage by which the read-out fell short of the control.
